Laboratory results as given in ChEMBL document CHEMBL1143841, “Improved assessment of plasmodium vivax response to antimalarial drugs by a colorimetric double-site plasmodium lactate dehydrogenase antigen capture enzyme-linked immunosorbent assay” (Antimicrob Agents Chemother, 2007).

Columns and labels:
Assay type in all cases: functional, organism-based
Plasmodium vivax [1] = experiment: Growth inhibition of Plasmodium vivax isolate 1 assessed as parasite LDH synthesis after 48 hrs by double-site Plasmodium LDH antigen capture enzyme-linked immunosorbent assay
Plasmodium vivax [2] = experiment: Growth inhibition of Plasmodium vivax isolate 3 assessed as parasite LDH synthesis after 48 hrs by double-site Plasmodium LDH antigen capture enzyme-linked immunosorbent assay
Plasmodium vivax [3] = experiment: Growth inhibition of Plasmodium vivax isolate 2 assessed as parasite LDH synthesis after 48 hrs by double-site Plasmodium LDH antigen capture enzyme-linked immunosorbent assay
Plasmodium vivax [4] = experiment: Growth inhibition of Plasmodium vivax isolate 4 assessed as parasite LDH synthesis after 48 hrs by double-site Plasmodium LDH antigen capture enzyme-linked immunosorbent assay

Q: Which results are given for `CCN(CC)CCCC(C)Nc1ccnc2cc(Cl)ccc12` (centres undefined) [CHLOROQUINE]?
A: IC50 (Plasmodium vivax [1]): 5.5 nM; IC50 (Plasmodium vivax [2]): 89.9 nM; IC50 (Plasmodium vivax [3]): 11.9 nM; IC50 (Plasmodium vivax [4]): 180 nM
